In the supplement of paper PMC10307832:

How the values were obtained:
Assay in all cases: relative viability (nuclei count vs DMSO), 5 days (fraction); higher = more cells survive
NCI-H596 = tested on: NCI-H596
Outline: (§1)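 Lung cancer cell lines in 1536-well plates were dosed by pin tool the day after seeding, either with one drug alone or with a fixed anchor-drug dose plus five library-drug doses (not always all listed) in √10 steps. After 5 days, cells were fixed and their nuclei stained in one step (final 0.05% Triton X-100, 1% formaldehyde, 1 ug/ml Hoechst), then counted on 4× images. Relative viability is the nuclei count in treated wells divided by that in vehicle wells. Values are medians of duplicate plates.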

A549 = tested on: A549
Outline: as §1

EBC-1 = tested on: EBC-1
Outline: as §1

IA-LM = tested on: IA-LM
Outline: as §1

NCI-H1703 = tested on: NCI-H1703
Outline: as §1

SK-LU-1 = tested on: SK-LU-1
Outline: as §1

PC-14 = tested on: PC-14
Outline: as §1

NCI-H1299 = tested on: NCI-H1299
Outline: as §1

NCI-H1944 = tested on: NCI-H1944
Outline: as §1

NCI-H1666 = tested on: NCI-H1666
Outline: as §1

NCI-H661 = tested on: NCI-H661
Outline: as §1

Calu-6 = tested on: Calu-6
Outline: as §1

NCI-H1623 = tested on: NCI-H1623
Outline: as §1

In the case of `Cc1cn(-c2cc(NC(=O)c3ccc(C)c(Nc4nccc(-c5cccnc5)n4)c3)cc(C(F)(F)F)c2)cn1` [Nilotinib] + COc1cc2c(Oc3ccc(NC(=O)C4(C(=O)Nc5ccc(F)cc5)CC4)cc3F)ccnc2cc1OCCCN1CCOCC1 [Foretinib] (partner 0.25 µM), the relative viability (NCI-H596; first compound 0.001 µM) is reported as 0.732, the relative viability (NCI-H596; first compound 0.003162 µM) is reported as 0.622 and the relative viability (NCI-H596; first compound 0.01 µM) is reported as 0.729. It also gave a relative viability (NCI-H596; first compound 0.03162 µM) of 0.937, a relative viability (NCI-H596; first compound 0.1 µM) of 0.601 and a relative viability (A549; first compound 0.001 µM) of 1.03. It also gave a relative viability (A549; first compound 0.01 µM) of 1.15, a relative viability (A549; first compound 0.1 µM) of 0.95 and a relative viability (EBC-1; first compound 0.001 µM) of 0.0869. It also gave a relative viability (EBC-1; first compound 0.003162 µM) of 0.101, a relative viability (EBC-1; first compound 0.01 µM) of 0.105 and a relative viability (EBC-1; first compound 0.1 µM) of 0.112. For the same compound, the relative viability (IA-LM; first compound 0.001 µM) was 1.14, the relative viability (IA-LM; first compound 0.003162 µM) was 1.23 and the relative viability (IA-LM; first compound 0.01 µM) was 1.33. For the same compound, the relative viability (IA-LM; first compound 0.1 µM) was 1.17, the relative viability (NCI-H1703; first compound 0.001 µM) was 0.337 and the relative viability (NCI-H1703; first compound 0.1 µM) was 0.409. The relative viability (SK-LU-1; first compound 0.001 µM) was 0.745, the relative viability (SK-LU-1; first compound 0.003162 µM) was 0.925 and the relative viability (SK-LU-1; first compound 0.01 µM) was 0.956. The relative viability (SK-LU-1; first compound 0.03162 µM) was 0.691, the relative viability (SK-LU-1; first compound 0.1 µM) was 0.666 and the relative viability (PC-14; first compound 0.001 µM) was 0.974. For the same compound, the relative viability (PC-14; first compound 0.003162 µM) was 1.11, the relative viability (PC-14; first compound 0.01 µM) was 1.07 and the relative viability (PC-14; first compound 0.03162 µM) was 0.845. For the same compound, the relative viability (PC-14; first compound 0.1 µM) was 0.928, the relative viability (NCI-H1299; first compound 0.001 µM) was 1.11 and the relative viability (NCI-H1299; first compound 0.01 µM) was 1.17. For the same compound, the relative viability (NCI-H1299; first compound 0.03162 µM) was 1.19, the relative viability (NCI-H1299; first compound 0.1 µM) was 1.07 and the relative viability (NCI-H1944; first compound 0.001 µM) was 0.907. For the same compound, the relative viability (NCI-H1944; first compound 0.003162 µM) was 1.05, the relative viability (NCI-H1944; first compound 0.01 µM) was 1.06 and the relative viability (NCI-H1944; first compound 0.03162 µM) was 0.739. For the same compound, the relative viability (NCI-H1666; first compound 0.001 µM) was 0.929, the relative viability (NCI-H1666; first compound 0.003162 µM) was 0.996 and the relative viability (NCI-H1666; first compound 0.03162 µM) was 0.911. It also gave a relative viability (NCI-H1666; first compound 0.1 µM) of 1.07, a relative viability (NCI-H661; first compound 0.001 µM) of 1.03 and a relative viability (NCI-H661; first compound 0.003162 µM) of 1.18. It also gave a relative viability (NCI-H661; first compound 0.03162 µM) of 0.919, a relative viability (NCI-H661; first compound 0.1 µM) of 0.9 and a relative viability (Calu-6; first compound 0.001 µM) of 0.726. It also gave a relative viability (Calu-6; first compound 0.003162 µM) of 0.897, a relative viability (Calu-6; first compound 0.01 µM) of 0.934 and a relative viability (Calu-6; first compound 0.03162 µM) of 0.644. The relative viability (Calu-6; first compound 0.1 µM) was 0.801, the relative viability (NCI-H1623; first compound 0.001 µM) was 0.789 and the relative viability (NCI-H1623; first compound 0.003162 µM) was 0.815. It also gave a relative viability (NCI-H1623; first compound 0.01 µM) of 0.873, a relative viability (NCI-H1623; first compound 0.03162 µM) of 0.667 and a relative viability (NCI-H1623; first compound 0.1 µM) of 0.791.
With `Cc1cn(-c2cc(NC(=O)c3ccc(C)c(Nc4nccc(-c5cccnc5)n4)c3)cc(C(F)(F)F)c2)cn1` [Nilotinib] + N=C(N)NC(=N)NCCc1ccccc1 [Phenformin] (partner 250 µM) the relative viability (NCI-H596; first compound 0.001 µM) was 0.588, the relative viability (NCI-H596; first compound 0.003162 µM) was 0.697 and the relative viability (NCI-H596; first compound 0.01 µM) was 0.909. It also gave a relative viability (NCI-H596; first compound 0.03162 µM) of 0.475, a relative viability (NCI-H596; first compound 0.1 µM) of 0.432 and a relative viability (A549; first compound 0.001 µM) of 0.147. It also gave a relative viability (A549; first compound 0.003162 µM) of 0.27, a relative viability (A549; first compound 0.01 µM) of 0.274 and a relative viability (A549; first compound 0.03162 µM) of 0.172. It also gave a relative viability (A549; first compound 0.1 µM) of 0.14, a relative viability (SK-LU-1; first compound 0.001 µM) of 0.47 and a relative viability (SK-LU-1; first compound 0.003162 µM) of 0.455. It also gave a relative viability (SK-LU-1; first compound 0.01 µM) of 0.597, a relative viability (SK-LU-1; first compound 0.03162 µM) of 0.402 and a relative viability (SK-LU-1; first compound 0.1 µM) of 0.306. For the same compound, the relative viability (PC-14; first compound 0.001 µM) was 0.573, the relative viability (PC-14; first compound 0.003162 µM) was 0.538 and the relative viability (PC-14; first compound 0.01 µM) was 0.546. The relative viability (PC-14; first compound 0.03162 µM) was 0.459, the relative viability (PC-14; first compound 0.1 µM) was 0.542 and the relative viability (NCI-H1944; first compound 0.001 µM) was 0.193. It also gave a relative viability (NCI-H1944; first compound 0.003162 µM) of 0.216, a relative viability (NCI-H1944; first compound 0.01 µM) of 0.222 and a relative viability (NCI-H1944; first compound 0.03162 µM) of 0.181. For the same compound, the relative viability (NCI-H1666; first compound 0.001 µM) was 0.605, the relative viability (NCI-H1666; first compound 0.003162 µM) was 0.615 and the relative viability (NCI-H1666; first compound 0.01 µM) was 0.578. It also gave a relative viability (NCI-H1666; first compound 0.03162 µM) of 0.545, a relative viability (NCI-H1666; first compound 0.1 µM) of 0.652 and a relative viability (NCI-H661; first compound 0.001 µM) of 0.307. The relative viability (NCI-H661; first compound 0.003162 µM) was 0.268, the relative viability (NCI-H661; first compound 0.03162 µM) was 0.279 and the relative viability (NCI-H661; first compound 0.1 µM) was 0.288. It also gave a relative viability (NCI-H1623; first compound 0.001 µM) of 0.578, a relative viability (NCI-H1623; first compound 0.003162 µM) of 0.585 and a relative viability (NCI-H1623; first compound 0.01 µM) of 0.605. The relative viability (NCI-H1623; first compound 0.03162 µM) was 0.566 and the relative viability (NCI-H1623; first compound 0.1 µM) was 0.601.
Work on `CN1CCN(CCOc2cc(OC3CCOCC3)c3c(Nc4c(Cl)ccc5c4OCO5)ncnc3c2)CC1` [Saracatinib] + CCNC(=O)c1noc(-c2cc(C(C)C)c(O)cc2O)c1-c1ccc(CN2CCOCC2)cc1 [Luminespib] (partner 0.01 µM) yielded a relative viability (NCI-H596; first compound 0.02 µM) of 1.01, a relative viability (NCI-H596; first compound 0.2 µM) of 0.74 and a relative viability (NCI-H596; first compound 0.6325 µM) of 0.84. For the same compound, the relative viability (NCI-H596; first compound 2 µM) was 0.715, the relative viability (SK-LU-1; first compound 0.02 µM) was 0.232 and the relative viability (SK-LU-1; first compound 0.2 µM) was 0.139. The relative viability (SK-LU-1; first compound 0.6325 µM) was 0.145, the relative viability (SK-LU-1; first compound 2 µM) was 0.129 and the relative viability (PC-14; first compound 0.02 µM) was 0.175. It also gave a relative viability (PC-14; first compound 0.2 µM) of 0.183, a relative viability (PC-14; first compound 0.6325 µM) of 0.173 and a relative viability (PC-14; first compound 2 µM) of 0.227. The relative viability (NCI-H1944; first compound 0.02 µM) was 0.826, the relative viability (NCI-H1944; first compound 0.6325 µM) was 0.846 and the relative viability (NCI-H1944; first compound 2 µM) was 0.459. The relative viability (NCI-H1666; first compound 0.02 µM) was 1.01, the relative viability (NCI-H1666; first compound 0.2 µM) was 1.09 and the relative viability (NCI-H1666; first compound 0.6325 µM) was 1.4. The relative viability (NCI-H1666; first compound 2 µM) was 1.15, the relative viability (NCI-H661; first compound 0.02 µM) was 0.948 and the relative viability (NCI-H661; first compound 0.2 µM) was 0.921. For the same compound, the relative viability (NCI-H661; first compound 0.6325 µM) was 0.943, the relative viability (NCI-H661; first compound 2 µM) was 0.771 and the relative viability (NCI-H1623; first compound 0.02 µM) was 0.527. For the same compound, the relative viability (NCI-H1623; first compound 0.2 µM) was 0.383, the relative viability (NCI-H1623; first compound 0.6325 µM) was 0.522 and the relative viability (NCI-H1623; first compound 2 µM) was 0.433.
